Data published in patent publication US20040086514A1, “Novel helicobacter pylori-binding substances and use thereof” (priority 1999, published 2004).
“Also recorded” adds a separate entry of the source.

What was measured:
Helicobacter pylori [1] = assay: Chromatogram binding assay: 35S-labeled Helicobacter pylori to glycosphingolipids on thin-layer plates; conditions: for binding of Helicobacter pylori to major acid glycosphingolipids of epithelial cells of human stomach: strains 002 and 032, identified tentatively by mobility on thin-layer chromatograms; for dependence of binding on other lipids or bile salts (Tween 20, deoxycholate) in the thin-layer chromatogram assay: coating buffer with or without detergent (FIG. 1); for binding of Helicobacter pylori in mixtures of reference glycosphingolipids: strain 17875, non-acid fractions of dog small intestine, guinea pig small intestine, mouse faeces (FIG. 1)
Helicobacter pylori [2] = assay: Inhibition of binding on thin-layer chromatograms with soluble oligosaccharides; conditions: for inhibition of binding of Helicobacter pylori to lactotetraosylceramide: 1 h room temperature, strain 17875 (FIG. 5)
Procedure: As a test for possible inhibition of binding by soluble sugars 35S-labeled Helicobacter pylori strains 002 and 032 were incubated for 1 h at room temperature with various concentrations (0.05 mg/ml, 0.1 mg/ml and 0.2 mg/ml) of lactotetraose (Accurate Chem. & Sci. Corp., Westbury, N.Y.) or lactose (J. T. Baker Chem. Co., Phillipsburg, N.J.) in PBS. Thereafter the chromatogram binding assay was performed as described above, using chromatograms with separated gangliotetraosylceramide, lactotetraosylceramide and reference glycosphingolipids.
The ability of soluble oligosaccharides to interfere with the binding of Helicobacter pylori to glycosphingolipids on thin-layer plates was examined by incubating radiolabelled Helicobacter pylori strain 17875 with free lactotetraose (0.1 mg/ml) or lactose (0.2 mg/ml) in PBS for 1 h at room temperature before the chromatogram binding assay of the suspensions. […] The lanes were: Galβ3GalNAcβ4Galβ4Glcβ1Cer (gangliotetraosylceramide), 4 μg (lane 1); Galβ3GlcNAcβ3Galβ4Glcβ1Cer (lactotetraosylceramide), 4 μg (lane 2); Galβ4GlcNAcβ3Galβ4Glcβ1Cer (neolactotetraosylceramide), 4 μg (lane 3). The glycosphingolipids were separated on aluminium-backed silica gel 60 HPTLC plates, using chloroform/methanol/water (60:35:8, by volume) as solvent system, and the binding assay was performed as described under “Materials and Methods”, using 2% BSA and 0.1% Tween 20 in PBS as coating buffer. Autoradiography was for 12 h.

Compound: NeuAcα3Galβ4Glcβ1Cer [GM3, reference compound]
- binding of Helicobacter pylori to major acid glycosphingolipids of epithelial cells of human stomach (Helicobacter pylori [1]): No binding
- binding of Helicobacter pylori to major acid glycosphingolipids of epithelial cells of human stomach (Helicobacter pylori [1]; listed as GM3 ganglioside): non-existent

Compound: maltoheptaose(red) -HDA [reference compound]
- binding activity with regard to Helicobacter pylori in TLC-overlay assay (Helicobacter pylori [1]; 4-hexadecylaniline (HDA) derivatives, compared with lactotetraosylceramide glycosphingolipid): totally inactive

Compound: Galβ3GlcNAcβ3Galβ4Glcβ1Cer
- binding activity relative to lactotetraosylceramide from human meconium (Helicobacter pylori [1]; ceramide exclusively sphingosine and non-hydroxy 16:0 and 24:0 fatty acids, not shown): as active as the lactotetraosylceramide from human meconium

Compound: sulfatide [reference compound]
- binding of Helicobacter pylori to major acid glycosphingolipids of epithelial cells of human stomach (Helicobacter pylori [1]): No binding; also recorded: non-existent

Compound: Galβ3GalNAcβ4Galβ4Glcβ1Cer [gangliotetraosylceramide]
- dependence of binding on other lipids or bile salts (Tween 20, deoxycholate) in the thin-layer chromatogram assay (Helicobacter pylori [1]): only marginally is affected
- binding of Helicobacter pylori in mixtures of reference glycosphingolipids (Helicobacter pylori [1]): binding

Compound: Galβ3GlcNAcβ3Galβ4Glcβ1Cer [No. 2]
- Helicobacter pylori isolates expressing the lactotetraosylceramide binding capacity (Helicobacter pylori [1]; 66 isolates of Table I, lactotetraosylceramide of human meconium): 86%
- recognition by sialic acid-binding H. pylori strain CCUG 17874 (Helicobacter pylori [1]; FIG. 11 B): recognised
- recognition by H. pylori strain CCUG 17875 devoid of sialic acid binding capacity (Helicobacter pylori [1]; FIG. 11 C): recognised
- effect of bacterial growth conditions on binding (Helicobacter pylori [1]; bacteria grown on agar and in broth, for 12 h and for 120 h): not affected
- dependence of binding on other lipids or bile salts (Tween 20, deoxycholate) in the thin-layer chromatogram assay (Helicobacter pylori [1]): only when other lipids or bile salts, such as Tween 20 or deoxycholate, are used
- binding by babAlA2 mutant strain (Helicobacter pylori [1]; gene coding for the Le^b-binding adhesin inactivated, data not shown): Binding
- number of Helicobacter pylori isolates expressing the lactotetraosylceramide binding capacity (Helicobacter pylori [1]; of 66 isolates of Table I, lactotetraosylceramide of human meconium): 57

Compound: OC[C@H]1O[C@@H](O[C@H]2[C@H](O)[C@@H](O)C(O)O[C@@H]2CO)[C@H](O)[C@@H](O)[C@H]1O (stereo partly shown) [lactose, reference compound]
- inhibition of binding of Helicobacter pylori to lactotetraosylceramide (Helicobacter pylori [2]; bacteria preincubated with 0.2 mg/ml in PBS): no inhibitory effect

Compound: lactosylceramide [reference compound]
- binding of Helicobacter pylori in mixtures of reference glycosphingolipids (Helicobacter pylori [1]): binding

Compound: gangliotriaosylceramide [reference compound]
- binding of Helicobacter pylori in mixtures of reference glycosphingolipids (Helicobacter pylori [1]): binding

Compound: CC(=O)N[C@H]1[C@H](O[C@H]2[C@@H](O)[C@@H](CO)O[C@@H](O[C@H]3[C@H](O)[C@@H](O)C(O)O[C@@H]3CO)[C@@H]2O)O[C@H](CO)[C@@H](O)[C@@H]1O[C@@H]1O[C@H](CO)[C@H](O)[C@H](O)[C@H]1O (stereo partly shown) [lactotetraose, Galβ3GlcNAcβ3Galβ4Glc]
- inhibition of binding of Helicobacter pylori to lactotetraosylceramide (Helicobacter pylori [2]; bacteria preincubated with 0.1 mg/ml in PBS): inhibited the binding
- blocking of binding of H. pylori to gangliotetraosylceramide (Helicobacter pylori [2]; preincubation with soluble oligosaccharide (FIG. 5)): able to block binding
